Data as given in patent US20170037086A1, “PEPTIDOMIMETIC MACROCYCLES WITH PTH ACTIVITY” (AILERON THERAPEUTICS, INC., priority 2014, published 2017).
Values joined by “and” are separate entries in the source; they are usually repeats but may differ in a detail not shown here. Equal values may be shown once. Positions of bridges follow the written chain, without caps; N, C: chain ends. Non-standard residues stand in square brackets, D forms with d. hArg = N=C(N)NCCCC[C@H](N)C(=O)O; S5 = C=CCCC[C@](C)(N)C(=O)O

Columns and labels:
[1] = test system: PTH (1-34) induced hypercalcemia; assay: TPTx rat model of PTH (1-34) induced hypercalcemia; assay type: in vivo; settings: for Ionized calcium, Avg. / Total calcium, Avg. / Ionized calcium, individual animals / Total calcium, individual animals: Group 2 Vehicle/PTH; for Ionized calcium, Avg. / Total calcium, Avg.: TPTx rats, PTH 1.25 μg/kg/h IV infusion
Description: PTH Antagonist in a TPTx Rat Model of PTH (1-34) Induced Hypercalcemia
Experiments were conducted assess the effect of a PTH antagonist SP#63 in a thyroparathyroidectomized (TPTx) rat model of PTH (1-34) induced hypercalcemia. Thyroid hormone was given as supportive therapy prior to start of PTH infusion.
SP#63 or the vehicle for SP#63 was administered as an intravenous (IV) bolus in PTH infused thyroparathyroidectomized (TPTx) Sprague-Dawley rats. SP#63 was administered at 0.925 mg/kg and 1.850 mg/kg, 1 to 3 min before the initiation of the IV infusion. PTH (administered at 1.25 μg/kg/h) or the vehicle for PTH were infused via a femoral catheter over a period of 6 hours at a rate of 1 mL/kg/h. Total and ionized calcium were measured from blood samples collected at 0, 2, 4 and 6 hours during the IV infusion.

[2] = molecular target: PTH receptor type 2 (UniProt P49190 25-550, limits assumed); assay: cell-based or functional assay
Sequence of PTH receptor type 2 (P49190 25-550 limits assumed): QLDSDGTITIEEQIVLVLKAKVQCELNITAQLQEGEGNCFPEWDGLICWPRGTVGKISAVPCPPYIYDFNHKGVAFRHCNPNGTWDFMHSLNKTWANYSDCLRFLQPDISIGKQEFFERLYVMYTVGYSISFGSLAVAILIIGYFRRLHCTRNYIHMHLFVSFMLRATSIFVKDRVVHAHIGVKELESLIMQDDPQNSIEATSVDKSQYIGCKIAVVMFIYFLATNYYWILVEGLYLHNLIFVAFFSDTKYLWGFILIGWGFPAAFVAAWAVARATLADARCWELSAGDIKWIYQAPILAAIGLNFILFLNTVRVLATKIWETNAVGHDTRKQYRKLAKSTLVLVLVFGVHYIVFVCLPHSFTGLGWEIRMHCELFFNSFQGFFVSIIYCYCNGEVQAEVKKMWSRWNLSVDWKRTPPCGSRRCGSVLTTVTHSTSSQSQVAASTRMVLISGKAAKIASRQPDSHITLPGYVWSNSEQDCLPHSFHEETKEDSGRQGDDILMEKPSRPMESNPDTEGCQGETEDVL

[3] = molecular target: T1, human PTH1 receptor (human, UniProt Q03431 27-593); assay: cell-based or functional assay
T1 sequence (looked up): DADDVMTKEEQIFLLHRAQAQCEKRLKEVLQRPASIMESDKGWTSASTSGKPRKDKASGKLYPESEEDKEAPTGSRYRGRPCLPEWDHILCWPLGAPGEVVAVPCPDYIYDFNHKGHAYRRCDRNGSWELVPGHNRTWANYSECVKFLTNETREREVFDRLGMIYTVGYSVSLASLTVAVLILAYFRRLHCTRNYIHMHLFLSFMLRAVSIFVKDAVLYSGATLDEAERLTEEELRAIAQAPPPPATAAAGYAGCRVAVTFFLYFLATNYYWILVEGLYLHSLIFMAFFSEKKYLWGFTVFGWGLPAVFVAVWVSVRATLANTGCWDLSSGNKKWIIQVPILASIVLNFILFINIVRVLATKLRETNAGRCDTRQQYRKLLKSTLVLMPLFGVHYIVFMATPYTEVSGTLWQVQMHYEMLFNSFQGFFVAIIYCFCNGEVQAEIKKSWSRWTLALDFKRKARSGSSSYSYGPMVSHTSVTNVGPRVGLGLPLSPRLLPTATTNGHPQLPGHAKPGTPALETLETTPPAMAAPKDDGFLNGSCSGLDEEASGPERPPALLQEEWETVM

## PTH (1-34)
[1]; 2 h
  Ionized calcium, Avg.: 4.13 mg/dL
  Total calcium, Avg.: 8.28 mg/dL
[1]; 4 h
  Ionized calcium, Avg.: 4.62 mg/dL
  Total calcium, Avg.: 9.14 mg/dL
[1]; 6 h
  Ionized calcium, Avg.: 4.99 mg/dL
  Total calcium, Avg.: 9.92 mg/dL
[1]; time 0
  Ionized calcium, Avg.: 3.36 mg/dL
  Total calcium, Avg.: 7.22 mg/dL
[1]; animals 2001-2005, 2 h
  Ionized calcium, individual animals: 4.08 mg/dL and 3.27 mg/dL and 4.85 mg/dL and 4.68 mg/dL and 3.75 mg/dL
  Total calcium, individual animals: 8.2 mg/dL and 6.6 mg/dL and 9.8 mg/dL and 9.3 mg/dL and 7.5 mg/dL
[1]; animals 2001-2005, 4 h
  Ionized calcium, individual animals: 4.58 mg/dL and 3.88 mg/dL and 5.29 mg/dL and 5.02 mg/dL and 4.34 mg/dL
  Total calcium, individual animals: 9.1 mg/dL and 7.6 mg/dL and 10.5 mg/dL and 9.8 mg/dL and 8.7 mg/dL
[1]; animals 2001-2005, 6 h
  Ionized calcium, individual animals: 5.06 mg/dL and 4.15 mg/dL and 5.71 mg/dL and 5.23 mg/dL and 4.79 mg/dL
  Total calcium, individual animals: 10.1 mg/dL (2×) and 8.3 mg/dL and 11.4 mg/dL and 9.7 mg/dL
[1]; animals 2001-2005, time 0
  Ionized calcium, individual animals: 3.21 mg/dL and 3.07 mg/dL and 4.01 mg/dL and 3.16 mg/dL
  Total calcium, individual animals: 6.7 mg/dL and 6.4 mg/dL and 8.4 mg/dL and 8.3 mg/dL and 6.3 mg/dL
[1]; PTH infusion 1.25 μg/kg/h with vehicle for SP#63, 3.36 mg/dL at 0 h
  ionized calcium at 6 h: 4.99 mg/dL
[1]; PTH infusion 1.25 μg/kg/h with vehicle for SP#63, 7.22 mg/dL at 0 h
  total calcium at 6 h: 9.92 mg/dL

## TIP-39 (from UniProt Q96A98 62-100) (ligand)
[2]
  calcium flux, EC80: 0.0041 µM

## BIM-44002 (peptide)
[2]
  calcium flux IC50: > 10 µM

## H-LLHQ[hArg]AK[S5]IQD[S5]RRR[S5]WLH[S5]LIAEIHTAEY-NH2 (staple 8-12, 16-20) [SP# 67]
[2]
  calcium flux IC50: < 10 µM

## H-LLHQRAKWIQD[S5]RRR[S5]WLRKKLQDVHNF-NH2 (staple 12-16) [SP# 247]
[3]
  IC50, SaOS-2 cAMP with PTH[1-84] or PTHrP[1-34] as ligand: < 0.01 µM

## H-LLH[S5]RAK[S5]IQDLRRRFW[S5]HHL[S5]AEIHTA-NH2 (staple 18-22, 4-8) [SP# 226]
[3]
  IC50, SaOS-2 cAMP with PTH[1-84] or PTHrP[1-34] as ligand: < 0.01 µM

## H-LL[S5]QRA[S5]WIQDLRRRFW[S5]HHL[S5]AEIHTA-NH2 (staple 18-22, 3-7) [SP# 228]
[3]
  IC50, SaOS-2 cAMP with PTH[1-84] or PTHrP[1-34] as ligand: < 0.01 µM

## H-LL[S5]QRA[S5]WIQD[S5]RRR[S5]WLHHLIAEIHTA-NH2 (staple 12-16, 3-7) [SP# 232]
[3]
  IC50, SaOS-2 cAMP with PTH[1-84] or PTHrP[1-34] as ligand: < 0.01 µM

## H-LLHQRA[S5]WIQ[S5]LRRREW[S5]RKK[S5]QDVHNF-NH2 (staple 7-11, 18-22) [SP# 245]
[3]
  IC50, SaOS-2 cAMP with PTH[1-84] or PTHrP[1-34] as ligand: < 0.01 µM

## H-LLHQRA[S5]WIQ[S5]LRRR[S5]WLR[S5]KLQDVHNF-NH2 (staple 7-11, 16-20) [SP# 246]
[3]
  IC50, SaOS-2 cAMP with PTH[1-84] or PTHrP[1-34] as ligand: < 0.01 µM
